Measurements reported in US7825245B2, “Substituted 4-anilinoquinazolines and their use in tumor treatment” (priority 2005, dated 2010).

How the values were obtained:
[1] = water solubility of the isolated product; format: physicochemical; details: isolated white powder
[2] = pH of the isolated product; format: physicochemical; details: isolated white powder

| Compound | water solubility [1] | pH [2] |
| --- | --- | --- |
| C=CC1CCN(Sc2cc3c(N(C)c4ccc(CC)cc4)ncnc3c(C)c2OCCC)CC1 [Compound V-1] | water-soluble | 6.4 |
| C=CC1CCN(C(=O)Oc2cc3c(N(C)c4ccc(CC)cc4)ncnc3c(C)c2OCC)CC1 [II-1] | water-soluble | 6.4 |
| C#CC1CCN(Nc2c(OC)cc3ncnc(N(C)c4ccc(C)cc4)c3c2CC)CC1 [III-1] | water-soluble | 6.4 |
